Values quoted from earlier work in patent US7507425B2, “Method for the treatment of cachexia” (The Quigley Corporation, priority 2005, dated 2009).

System: nitric oxide synthase (NOS)
Conditions: Northern-blot and immunoblotting; macrophages activated with vs without curcumin

COc1cc(/C=C/C(=O)CC(=O)/C=C/c2ccc(O)c(OC)c2)ccc1O [curcumin]
levels of mRNA and 130-k Da protein of inducible NOS: significantly reduced levels
